Data on 8 compounds can be found in ChEMBL document CHEMBL1201862, “PubChem BioAssay data set” (2004).

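Values below derive from 48-hour exposures of cells grown in 96-well plates, with endpoints linearly interpolated between the two concentrations bracketing the appropriate inhibition level. Here, GI50 denotes the concentration required for 50% inhibition of growth.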 Active and inactive are the calls of the source. Rule as the data show it: active = GI50 up to about 1.1 µM and inactive = higher. Some results are limits rather than exact numbers.

Test in all cases: growth of human tumour cells (NCI), 48 h
In assay [1] the test system is A498.
In assay [2] the test system is ACHN.
For assay [3], the system named is CCRF-CEM.
The subject of assay [4] is COLO 205.
The test system of assay [5] is HCT-15.
The subject of assay [6] is K562.
In assay [7] the test system is MDA-MB-231.
In assay [8] the test system is MDA-N.
Assay [9] deals with MOLT-4.
Assay [10] has as its system NCI-H226.
The test system of assay [11] is NCI-H23.
Assay [12] deals with NCI/ADR-RES.
Assay [13] concerns OVCAR-5.
Assay [14] has as its system SF-295.
In assay [15] the test system is SK-MEL-2.
The test system of assay [16] is SK-OV-3.
The subject of assay [17] is SNB-19.
The subject of assay [18] is TK-10.
For assay [19], the system named is UACC-257.

For the compound `CCOC(=O)c1cccc(NC(=O)CI)c1`, the GI50 in assay [1] was 2.07 µM (inactive); in assay [2], 0.682 µM (active); in [3], 0.0239 µM (active); in [4] it was 0.531 µM (active); in [5], 0.336 µM; in [6] it was 0.191 µM (active). In addition, the GI50 in assay [7] is 1.31 µM (inactive); in assay [8] it was 0.211 µM (active); in assay [9] it was 0.0284 µM (active); in [10] it was 0.601 µM (active); in assay [11], 0.336 µM (active); in assay [12], 0.5 µM (active). The GI50 in assay [13] is 1.64 µM (inactive); in assay [14], 2.47 µM (inactive); in assay [15] it was 0.871 µM (active); in [16], 0.918 µM (active); in assay [17], 3.54 µM (inactive); in assay [18], 0.897 µM (active). In addition, in assay [19], the GI50 is 1.36 µM (inactive).

Consider `COc1ccc([C@H]2C=C(c3cc(F)c(Cl)cc3Cl)NC(=S)N2)cc1`, for which the GI50 was 28.1 µM (inactive) in assay [1]; 36.9 µM (inactive) in [2]; 30.2 µM (inactive) in assay [3]; 19.1 µM (inactive) in assay [4]; 28.7 µM in assay [5]; 15.2 µM (inactive) in assay [6]. Moreover, the GI50 in assay [7] is 27.2 µM (inactive); in assay [8] it was 11.1 µM (inactive); in [9], 17.7 µM (inactive); in assay [10], 56.1 µM (inactive); in assay [11] it was 37.5 µM (inactive); in [12], 25.7 µM (inactive). Also, the GI50 in assay [13] was 43.1 µM (inactive); in assay [14], 24.3 µM (inactive); in assay [15], 25.1 µM (inactive); in assay [16] it was 44.1 µM (inactive); in [17], 61 µM (inactive); in [18], 32.7 µM (inactive). Further, the GI50 in [19] was 24.9 µM (inactive).

As to `S=c1[nH]nc(Cn2c3ccc(Br)cc3c3nc4ccccc4nc32)o1`, the GI50 in [1] was 43.9 µM (inactive); in [2], 39.6 µM (inactive); in assay [3], 24.7 µM (inactive); in assay [4], 46.9 µM (inactive); in assay [5], 1.06 µM; in assay [6] it was 35.1 µM (inactive). For the same compound, the GI50 is > 45.4 µM (inactive) in assay [7]; 41 µM (inactive) in assay [8]; 27.1 µM (inactive) in assay [9]; > 77.3 µM (inactive) in assay [10]; 25.2 µM (inactive) in assay [11]; 74.5 µM (inactive) in [12]. In addition, the GI50 in [13] was > 84.5 µM (inactive); in assay [14] it was 42.9 µM (inactive); in [15], 8.67 µM (inactive); in [16], > 78.5 µM (inactive); in assay [17], 53 µM (inactive); in [18] it was 69.5 µM (inactive). In addition, the GI50 in assay [19] was > 58.6 µM (inactive).

For `CCCCCCCCCC(=O)NCCc1c[nH]c2ccc(OC)cc12`, the GI50 in assay [1] is 16.3 µM (inactive); in [2], 16.7 µM (inactive); in [3], 7.26 µM (inactive); in assay [4] it was 23.8 µM (inactive); in assay [5] it was 19.1 µM; in assay [6], 55 µM (inactive). Further, the GI50 in assay [7] is 15.1 µM (inactive); in assay [8], 18.8 µM (inactive); in assay [9] it was 64.7 µM (inactive); in [10], 19.9 µM (inactive); in assay [11], 17.3 µM (inactive); in assay [12], 19.2 µM (inactive). For the same compound, the GI50 was 23.9 µM (inactive) in assay [13]; 17.4 µM (inactive) in [14]; 16.1 µM (inactive) in assay [15]; 17.4 µM (inactive) in [16]; 16.5 µM (inactive) in [17]; 18.2 µM (inactive) in [18]. The GI50 in [19] is 20.8 µM (inactive).

In the case of `CCOP(=O)(/C=C\n1cc(C)c(=O)[nH]c1=O)OCC`, the GI50 in assay [1] was > 100 µM (inactive); in assay [2], > 100 µM (inactive); in assay [3], > 100 µM (inactive); in [4] it was > 100 µM (inactive); in assay [5], > 100 µM; in [6], > 100 µM (inactive). Moreover, the GI50 in [7], in [8], in [9], in [10], in assay [11] and in assay [12] was > 100 µM (inactive) in each case. Also, the GI50 in assay [13], in [14], in assay [15], in assay [16], in [17] and in assay [18] was > 100 µM (inactive) in each case. For the same compound, in assay [19], the GI50 was > 100 µM (inactive).

In the case of `COC(=O)/C=C1\C(=O)N(C(C)=O)c2ccc(Br)cc21`, the GI50 in assay [1] was 21.9 µM (inactive); in assay [2] it was 11.6 µM (inactive); in assay [3], 1.47 µM (inactive); in assay [4] it was 13.7 µM (inactive); in assay [5] it was 6.75 µM; in assay [6], 7.69 µM (inactive). Besides, the GI50 is 14.9 µM (inactive) in assay [7]; 11 µM (inactive) in assay [8]; 3.03 µM (inactive) in assay [9]; 15.1 µM (inactive) in assay [10]; 15.3 µM (inactive) in [11]; 11.7 µM (inactive) in assay [12]. The GI50 in [13] was 17.3 µM (inactive); in assay [14], 16.9 µM (inactive); in [15], 13.9 µM (inactive); in assay [16], 15.4 µM (inactive); in assay [17], 14.3 µM (inactive); in [18], 6.31 µM (inactive). For the same compound, in assay [19], the GI50 was 10.7 µM (inactive).

As to `O=C1C[C@H](COCc2ccccc2)NC(=O)C[C@H](COCc2ccccc2)NC(=O)C[C@H](COCc2ccccc2)N1`, the GI50 is 12 µM (inactive) in [1]; 16.4 µM (inactive) in [2]; > 100 µM (inactive) in assay [3]; > 100 µM (inactive) in assay [4]; > 100 µM in [5]; 3.52 µM (inactive) in assay [6]. The GI50 in assay [7] is 26.7 µM (inactive); in assay [8] it was > 100 µM (inactive); in assay [9] it was 5.9 µM (inactive); in [10] it was > 100 µM (inactive); in assay [11], 55.3 µM (inactive); in assay [12], > 100 µM (inactive). Also, the GI50 was > 100 µM (inactive) in assay [13]; 19.2 µM (inactive) in assay [14]; 28.2 µM (inactive) in [15]; 19.5 µM (inactive) in assay [16]; 18.6 µM (inactive) in assay [17]; 18.1 µM (inactive) in assay [18]. Also, the GI50 in [19] was > 100 µM (inactive).

For `Cn1c(=O)cc(Nc2ccc(N)cc2)[nH]c1=O`, the GI50 in assay [1] is > 100 µM (inactive); in [2], > 100 µM (inactive); in assay [3], > 100 µM (inactive); in assay [4] it was > 100 µM (inactive); in assay [5], > 100 µM; in assay [6] it was > 100 µM (inactive). Moreover, the GI50 in [7], in assay [8], in assay [9], in assay [10], in assay [11] and in [12] was > 100 µM (inactive) throughout. Further, the GI50 in [13], in [14], in [15], in [16], in assay [17] and in assay [18] was > 100 µM (inactive) each time. The GI50 in assay [19] is > 100 µM (inactive).
